Data from US6255088A, “Enzymatic sulfation of biomolecules” (The Scripps Research Institute, priority 1999, dated 2001).
pKi: −log10 of the molar value. Where two headings read alike, the source gives them in different places.

Legend:
NodST [1] = molecular target: T1, NodST (Sinorhizobium meliloti, UniProt P06236); assay: Continuous spectrophotometric coupled-enzyme assay of NodST with βAST-IV PAPS regeneration; type: biochemical, Rhizobium melioti
T1 sequence (P06236 1-247): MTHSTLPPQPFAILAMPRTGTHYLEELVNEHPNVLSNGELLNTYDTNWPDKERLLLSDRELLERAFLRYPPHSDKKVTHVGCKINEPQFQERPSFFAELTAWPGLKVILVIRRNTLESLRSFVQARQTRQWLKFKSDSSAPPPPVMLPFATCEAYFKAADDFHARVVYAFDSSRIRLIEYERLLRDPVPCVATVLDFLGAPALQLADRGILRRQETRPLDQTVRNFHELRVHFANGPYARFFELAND
Description: 100 mM bis-tris propane-HCl, pH 7.0, 5 mM 2-mercaptoethanol, 20 μM PAPS, 2 mM p-nitrophenyl sulfate, 3.0 mU NodST, 6.4 mU β-AST IV, and substrate are combined to a total volume of 500 μL. Because commercial PAPS contains significant amounts of PAP, the assay solution is incubated for 30 minutes at 20° C. prior to addition of substrate. The evolution of p-nitrophenol is monitored at 400 nm for 10 minutes.
All reactions were run in a total volume of 500 μL at 25° C. […] The amount of NodST added to each series of acceptor concentrations is varied over 1.2, 1.8, 3.0, and 4.2 mU. Because commercial PAPS contains significant amounts of PAP, the assay solution is incubated for 30 minutes at 20° C. prior to addition of substrate. The evolution of p-nitrophenol is monitored at 400 nm for 10 minutes.
3.0 mU of NodST was used in each reaction. The Km for each series of PAP concentrations was calculated and the values were compared.

NodST [2] = molecular target: T1, NodST; settings: non-coupled radioisotope thin-layer chromatography assay, 100 μM PAPS; read-out: published Km of acceptor for NodST; cited from earlier work
[3] = system: hydroxysteroid sulfotransferase; settings: Marcus et al. 1980, cited from earlier work
βAST-IV = molecular target: T2, βAST-IV (Rattus norvegicus, UniProt P17988); assay: Reverse-physiological reaction of βAST-IV (PAPS from PAP and p-nitrophenyl sulfate); type: biochemical; settings: 10 mM p-nitrophenyl sulfate, pH 7.0, 25° C.
T2 construct: made in house; host or cells: E. coli BL21(DE3)
T2 sequence (P17988 whole entry): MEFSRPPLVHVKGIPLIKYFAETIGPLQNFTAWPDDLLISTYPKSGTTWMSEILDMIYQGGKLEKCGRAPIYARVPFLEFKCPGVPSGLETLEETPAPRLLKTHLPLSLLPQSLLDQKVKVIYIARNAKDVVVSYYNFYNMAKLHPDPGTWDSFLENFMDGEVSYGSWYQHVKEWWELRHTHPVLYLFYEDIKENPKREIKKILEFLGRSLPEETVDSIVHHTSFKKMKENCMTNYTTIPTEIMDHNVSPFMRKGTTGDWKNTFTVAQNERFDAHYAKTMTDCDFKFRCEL
Description: All capillary zone electrophoresis (CZE) was run in 0.23 M borate in running buffer at pH 7.8. The column was pre-washed with H2 O (1 min), 1 N NaOH (1 min), and running buffer (2 min). The sample was pressure injected at 20 psi sec and electrophoresis was run with 20.0 kV (- to +) at 20° C. with detection at 260 nm. CZE of 1 mM standards PAPS, PAP, and 3'-adenosine monophosphate (3'-AMP) were run to determine retention times. The reverse-physiological reaction assay mixture, a 500 μL solution containing 50 mM bis-tris propane-HCl buffer at pH 7.0, 1 mM 2-mercaptoethanol, 10 mM p-nitrophenyl sulfate, and 1 mM PAP at 25° C., was subjected to CZE prior to addition of enzyme (t=0). 5 mU βAST-IV was added and CZE was repeated 30 minutes after initiation. The reaction was then diluted 100-fold and CZE was run again. A 2.0 μL internal standard of 10 mM PAPS was added, and CZE was repeated.
βAST-IV activity in the reverse-physiological reaction was determined at 25° C. with a total volume of 500 μL. The reverse-physiological assay above was used with varying PAP concentration (15.6, 31.3, 62.5, 125, 250, 500 μM). Measurement of initial velocity was conducted over 10 seconds at 400 nm, and an extinction coefficient of 1064 was used to calculate p-nitrophenol concentration at pH 7.0. […]

NodST [4] = molecular target: T1, NodST; settings: Lin et al. 1995; read-out: Ki, PAP inhibition of NodST; cited from earlier work
[5] = aqueous solution at pH 8.0; cited from earlier work
NodST [6] = molecular target: T1, NodST; settings: read-out: Km of NodST for PAPS; preliminary study
Description: To ensure that our coupled assay provides a steady-state PAPS concentration that is much greater than the Km of NodST, the Km experiments above were conducted with varying concentrations of PAPS to verify PAPS saturation. […] A previously published study using a radioisotopic thin-layer chromatography method to determine kinetic values of NodST maintained 100 μM PAPS concentration for all assays. Given that AST-IV maintains a constant concentration of PAPS through recycling, it is disclosed that 20 μM PAPS reaction concentration is sufficient for saturation conditions to maintain steady-state.

Which “increase in acceptor specificity from LacNAc to the LacNAc dimer” value (NodST [1]; NodST, coupled assay) does the source give for CC(=O)N[C@H]1[C@H](O[C@H]2[C@@H](O)[C@@H](CO)O[C@@H](O[C@H]3[C@H](O)[C@@H](NC(C)=O)C(O)O[C@@H]3CO)[C@@H]2O)O[C@H](CO)[C@@H](O[C@@H]2O[C@H](CO)[C@H](O)[C@H](O)[C@H]2O)[C@@H]1O (stereo partly drawn) [LacNAc dimer, Galβ(1,4)GlcNAcβ(1,3) Galβ(1,4)GlcNAc] here?
Its value is “sixty-fold increase”.

Which Km (NodST [2]) does the source give for CC(=O)N[C@H]1[C@H](O[C@H]2[C@H](O)[C@@H](NC(C)=O)[C@H](O[C@H]3[C@H](O)[C@@H](NC(C)=O)C(O)O[C@@H]3CO)O[C@@H]2CO)O[C@H](CO)[C@@H](O[C@@H]2O[C@H](CO)[C@@H](O[C@@H]3O[C@H](CO)[C@@H](O)[C@H](O)[C@H]3NC(C)=O)[C@H](O)[C@H]2NC(C)=O)[C@@H]1O (stereo partly drawn) [N,N',N",N'",N""-pentaacetylchito-pentaose] here?
The Km was 190 µM.

For CC(=O)N[C@H]1[C@H](O[C@H]2[C@H](O)[C@@H](NC(C)=O)C(O)O[C@@H]2CO)O[C@H](CO)[C@@H](O[C@@H]2O[C@H](CO)[C@@H](O[C@@H]3O[C@H](CO)[C@@H](O)[C@H](O)[C@H]3NC(C)=O)[C@H](O)[C@H]2NC(C)=O)[C@@H]1O (stereo partly drawn) [N,N',N",N'"-tetraacetylchitotetraose], which “kcat of acceptor with NodST” value (NodST [1]; apparent value, coupled assay, 20 μM PAPS, pH 7.0) is on record?
Its value is 0.328 s⁻¹.

And the “acceptor specificity for NodST, ranking among substrates” value (NodST [1]; coupled assay, among N-acetyl chitoses, LacNAc and LacNAc dimer)?
The value was “best substrate”.

And the Km (NodST [2])?
The Km was 140 µM.

Which “kcat of acceptor with NodST, PAPS concentration study” value (NodST [1]; 20, 40 and 100 μM PAPS, all three within 10% variation, 3.0 mU NodST) does the source give for CC(=O)N[C@H]1[C@H](O[C@H]2[C@H](O)[C@@H](NC(C)=O)C(O)O[C@@H]2CO)O[C@H](CO)[C@@H](O[C@@H]2O[C@H](CO)[C@@H](O)[C@H](O)[C@H]2NC(C)=O)[C@@H]1O (stereo partly drawn) [N,N',N"-triacetylchitotriose] here?
The value was ~23.6 s⁻¹.

Which results are given for Nc1ncnc2c1ncn2[C@@H]1O[C@H](COP(=O)(O)O)[C@@H](OP(=O)(O)O)[C@H]1O [PAP, adenosine 3',5'-diphosphate]?
enzyme product inhibition of sulfotransferases [3]: low-micromolar levels; pKi ([3]; read-out: Ki, PAP inhibition of hydroxysteroid sulfotransferase): 4.85; Vmax of βAST-IV as a function of PAP concentration (βAST-IV): 6.04 ± 0.24 µmol/min; pKi (NodST [4]): 7.00

With Nc1ncnc2c1ncn2[C@@H]1O[C@H](COP(=O)(O)OS(=O)(=O)O)[C@@H](OP(=O)(O)O)[C@H]1O [PAPS, 3'-phosphoadenosine-5'-phosphosulfate] as the molecule, how does the “half-life of PAPS in aqueous solution” value [5] read?
The value was “approximately 20 hours”.

What about the Km (NodST [6]) of the same molecule?
Its Km is < 0.1 µM.
